≈ marks a conversion by molar mass, not a printed value. Where two headings read alike, the source gives them in different places.
Key:
[1] = system: chloroquine-resistant K1 strain of Plasmodium falciparum; experiment: Activity against P. falciparum K1 strain in vitro; format: cell-based
Source text: (§1) Activity of 1,2,4-trioxolanes against P. falciparum in vitro.

[2] = system: ANKA strain of P. berghei; experiment: Single dose in vivo screen in P. berghei-infected NMRI mice; settings: for Survival (days) 30 mg/kg SSV po / Activity (%) 30 mg/kg SSV po: single 30 mg/kg po dose in SSV one day post-infection; for Activity (%) 30 mg/kg SSV po: percent reduction in parasitemia on day three post-infection; for Cures 30 mg/kg SSV po: single 30 mg/kg po dose in SSV, cure = survival to day 30 post-infection, groups of five mice
Experimental: Activity of 1,2,4-trioxolanes against P. berghei in vivo. In the single dose in vivo screen, NMRI mice infected with the ANKA strain of P. berghei (groups of five mice) were treated one day post-infection with trioxolanes dissolved or suspended in standard suspending vehicle (SSV). The SSV consists of either 0.5% w/v carboxymethyl cellulose, 0.5% v/v benzyl alcohol, 0.4% v/v Tween 80, and 0.9% w/v sodium chloride in water or 0.5% hydroxypropylmethylcellulose 0.4% v/s Tween 80, and 0.5% v/v benzyl alcohol in water. […] Antimalarial activity was measured by percent reduction in parasitemia on day three post-infection and survival times compared to an untreated control group. Survival to day 30 post-infection is considered to be a cure in this model.

[3] = system: chloroquine-sensitive NF54 strain of Plasmodium falciparum; experiment: Activity against P. falciparum NF54 strain in vitro; format: cell-based
Source text: as §1

[4] = system: P. berghei; experiment: Prophylactic activity against P. berghei in vivo (mice dosed before infection); settings: for Cures 24 h prior to infection (30 mg/kg) / Activity (%) 24 h prior to infection (30 mg/kg): single 30 mg/kg oral dose 24 h prior to infection; for Activity (%) 24 h prior to infection (30 mg/kg) / Activity (%) 48 h prior to infection (100 mg/kg): parasitemia day 3 post-infection; for Cures 48 h prior to infection (100 mg/kg) / Activity (%) 48 h prior to infection (100 mg/kg): single 100 mg/kg oral dose 48 h prior to infection; for Activity (%) 72 h prior to infection (100 mg/kg) / Cures 72 h prior to infection (100 mg/kg): single 100 mg/kg oral dose 72 h prior to infection
Experimental: All groups (n=5 mice per group) including an untreated control group, were infected at the same time and parasitemia was determined for each animal on day 3 post-infection and compared with the level of parasitemia in control animals.

[5] = Blood stability studies in freshly collected rat blood; format: in vitro ADME; set-up: unit not given here
Experimental: Blood stability studies: Compounds were incubated at 37° C. in freshly collected rat blood. At selected time points, duplicate aliquots of the whole blood were sampled, centrifuged and the plasma assayed for parent compound by LC-MS.

[6] = system: Embryonic red blood cells (RBCs); experiment: Rat whole embryo culture (WEC) model, embryotoxicity
Source text: Embryonic red blood cells (RBCs) were the primary target leading to anemia and subsequent hypoxia in embryonic tissues.
Longo, M.; Zanoncelli, S.; Manera, D.; Brughera, M.; Colombo, P.; Lansen J.; Mazué, G.; Gomes, M.; Taylor W. R. J.; Olliaro, P. Effects of the Antimalarial Drug Dihydroartemisinin (DHA) on Rat Embryos In Vitro. Repro. Tox. 2006, 21, 83-93.

[7] = Pharmacokinetic studies in rats (oral); format: in vivo, rat; settings: oral 10 mg/kg; for Oral Bioavailability at 10 mg/kg (%): relative to an IV dose
Experimental: Pharmacokinetic studies in rats: Compounds were administered orally to rats (n=2) at a dose of 10 mg/kg in a suspension formulation containing hydroxypropylmethyl cellulose, Tween 80, benzyl alcohol, and water. […] Oral bioavailability for each compound was calculated relative to an IV dose for each compound in a suitable vehicle.

[8] = P. falciparum K1, in vitro, first value of K1/NF54 cell, read-out: IC50 (ng/ml) K1
[9] = P. falciparum NF54, in vitro, second value of K1/NF54 cell, read-out: IC50 (ng/ml) NF54

Structure (SMILES) | IC50 [1, 8] | Survival (days) 30 mg/kg SSV po [2] | Activity (%) 30 mg/kg SSV po [2] | Cures 30 mg/kg SSV po [2] | IC50 [3, 9] | Cures 24 h prior to infection (30 mg/kg) ([4]; n=5 mice) | Activity (%) 24 h prior to infection (30 mg/kg) [4] | Cures 48 h prior to infection (100 mg/kg) ([4]; n=5 mice) | Activity (%) 48 h prior to infection (100 mg/kg) [4] | Activity (%) 72 h prior to infection (100 mg/kg) [4] | Cures 72 h prior to infection (100 mg/kg) ([4]; n=5 mice) | Stability in Rat Blood (t1/2) at 37° C. [5] | NOAEL for embryonic RBCs [6] | other results
CO[C@H]1O[C@@H]2O[C@@]3(C)CC[C@H]4[C@H](C)CC[C@@H]([C@H]1C)[C@@]24OO3 [AM, artemether, reference compound] | 0.74 ng/mL (≈ 0.00248 µM) | 9.0 days | 99.7% | 0/5 | 1.2 ng/mL (≈ 0.00402 µM) | – | – | – | – | – | – | – | – | –
OC(c1cc(C(F)(F)F)nc2c(C(F)(F)F)cccc12)C1CCCCN1 (stereo not drawn) [MQ, mefloquine, reference compound] | 3 ng/mL (≈ 0.00793 µM) | 21.8 days | 99.6% | 0/5 | 5.8 ng/mL (≈ 0.0153 µM) | 3/5 | >99.9% | 3/5 | 99.9% | >99.9% | 0/5 | – | – | –
CC(C)(N)CNC(=O)C[C@H]1CC[C@]2(CC1)OO[C@]1(O2)C2CC3CC(C2)CC1C3 [OZ277, reference compound] | – | 8.0 days | 99.7% | 0/5 | – | 0/5 | 13% | 0/5 | 0% | – | – | 0.8 | 0.2 µg/mL | In Vivo Oral t1/2 at 10 mg/kg [7]: 1.6 h; Oral Bioavailability at 10 mg/kg (%) [7]: 19%
CS(=O)(=O)O.NC1CCC(Oc2ccc(C3CCC4(CC3)OOC3(O4)C4CC5CC(C4)CC3C5)cc2)CC1 (stereo not drawn) [OZ493] | – | – | – | – | – | 3/5 | >99.9% | 5/5 | 99% | 99.9% | 5/5 | >17 | 1 µg/mL | Activity (%) 96 h prior to infection (100 mg/kg) ([4]; single 100 mg/kg oral dose 96 h prior to infection): 99.5%; Cures 96 h prior to infection (100 mg/kg) ([4]; single 100 mg/kg oral dose 96 h prior to infection, n=5 mice): 3/5; In Vivo Oral t1/2 at 10 mg/kg ([7]; 10 mg/kg): 7.7 h; Oral Bioavailability at 10 mg/kg (%) ([7]; 10 mg/kg): 51%
CCN(CC)CCCC(C)Nc1ccnc2cc(Cl)ccc12 (stereo not drawn) [CQ, chloroquine, reference compound] | – | 9.6 days | – | 0/5 | – | 0/5 | – | 0/5 | – | – | – | – | – | IC50 ([1]; K1 / NF54, read-out: IC50 (ng/ml) K1): 62 ng/mL (≈ 0.194 µM); IC50 ([3]; K1 / NF54, read-out: IC50 (ng/ml) NF54): 5.1 ng/mL (≈ 0.0159 µM)

Reference: patent publication US8067620B2, “Dispiro 1,2,4-trioxolane antimalarials” (Medicines for Malaria Venture MMV, priority 2005, dated 2011)
